Assay results: paper PMC8359613, “An essential vesicular-trafficking phospholipase mediates neutral lipid synthesis and contributes to hemozoin formation in Plasmodium falciparum” (BMC Biology, 2021)

Molecular target: T1, PfLPL1 (Plasmodium falciparum, UniProt Q8IK69)
T1 construct: gene PF3D7_1476700; full length 1-353, expressed from pETM-41 in E. coli BL21(DE3); Ni-NTA then amylose resin (implies His-MBP fusion)
T1 sequence (Q8IK69 1-353): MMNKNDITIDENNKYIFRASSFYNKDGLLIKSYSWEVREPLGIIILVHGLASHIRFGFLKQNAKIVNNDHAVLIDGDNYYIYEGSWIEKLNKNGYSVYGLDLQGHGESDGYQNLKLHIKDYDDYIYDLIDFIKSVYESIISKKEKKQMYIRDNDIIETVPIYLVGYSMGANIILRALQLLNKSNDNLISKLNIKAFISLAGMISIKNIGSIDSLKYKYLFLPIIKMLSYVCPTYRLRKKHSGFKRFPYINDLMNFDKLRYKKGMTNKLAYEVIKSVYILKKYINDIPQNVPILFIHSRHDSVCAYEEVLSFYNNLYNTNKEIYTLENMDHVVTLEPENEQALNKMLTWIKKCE
Test: coupled Amplex Red fluorescence assay (GPC phosphodiesterase, choline oxidase, HRP)
Assay type: biochemical
Conditions: substrate 0-70 µM; Tris-HCl, CaCl2, pH 8.0; room temperature; acyl chain of LPC not stated; reaction mix lists 0.5 mM lecithin

In the case of LPC, the Km is reported as 61.2 ± 5.9 µM.
